Data reported in patent US10966912B2, “Medicament” (SYMRISE AG, priority 2016, dated 2021).

Experiments:
Format in all cases: cell-based
[1] = tested on: Human epidermal melanoma cells A375; assay: Visible light induced hyperpigmentation in vitro; conditions: for Inhibition vs visible light induced / melanin: visible light 480 J/cm2, A375 cells; for melanin: treated 48 h before and after irradiation
Description: Human epidermal melanoma cells A375 were cultured in 6-well plates. The cells were exposed to visible light (480 J/cm2) with Hydrosun 750 equipped with KG1 filter. 48 h prior to and past to the irradiation the cells were treated with test compounds in non-cytotoxic concentrations. Melanocytes were lysed in a solution of NaOH. Melanin was quantified by measurement of absorbance at 405 nm and calculation based on a melanin standard curve.

[2] = tested on: ex vivo human skin explants; assay: Melanin formation after visible light irradiation on ex vivo human skin; conditions: visible light 480 J/cm2; for Inhibition vs Placebo: ex vivo human skin; for % of melanin: topical on skin explant phototype IV, Fontana-Masson stain, image analysis
Description: The below formulations were applied on ex vivo human skin explants from abdominal surgery of a donor with phototype IV (Fitzpatrick scale). 48 h after the formulations were removed with a cotton pad. Skin explants were exposed to visible light (480 J/cm2) with Hydrosun 750 equipped with KG1 filter. Formulations were reapplied afterwards. 48 h later skin sections were prepared and melanin was stained by Fontana-Masson stain. Quantification of melanin was done by image analysis.

[3] = tested on: Human epidermal melanoma cells A375; assay: Basal melanin formation in vitro; conditions: for melanin: basal

NCCC(=O)N[C@@H](Cc1cnc[nH]1)C(=O)O [L-carnosine]
Inhibition vs visible light induced ([1]; 0.001% L-carnosine): 110% | melanin ([1]; 0.001% L-carnosine): 0.5601 µg | Inhibition vs visible light induced ([1]; 0.00316% L-carnosine): 113% | melanin ([1]; 0.00316% L-carnosine): 0.5478 µg | Inhibition vs visible light induced ([1]; 0.01% L-carnosine): 81% | melanin ([1]; 0.01% L-carnosine): 0.6594 µg | Inhibition vs visible light induced ([1]; 0.0316% L-carnosine): 90% | melanin ([1]; 0.0316% L-carnosine): 0.6296 µg | visible light induced hyperpigmentation ([1]; A375 cells): inhibits significantly | Inhibition vs Placebo ([2]; 0.05% L-carnosine (formulation C)): 91.1% | % of melanin ([2]; 0.05% L-carnosine (formulation C, Table 3)): 35.74 ± 2.6% | Inhibition vs Placebo ([2]; 0.2% L-carnosine (formulation B)): 92.2% | % of melanin ([2]; 0.2% L-carnosine (formulation B, Table 3)): 35.44 ± 2.3% | effect on basal melanin formation [3]: no effect | melanin ([3]; 0.001% L-carnosine): 0.6845 µg | melanin ([3]; 0.00316% L-carnosine): 0.6186 µg
